Numbered stars: 1 amine (or outer) side, 2 acyl side, 3 side chain; on linkers, the order of the positions; unused ones are H or OH. Bridge positions count the residues as written; N and C are the ends. Square brackets hold non-standard residues; d marks the D form. Side chains are listed from the residue outwards. Peptide text beside a SMILES is read from it. * marks the point of attachment. ξ: configuration not given here. Ala(piperidin-4-yl) = O=C([C@H](CC1CCN([*:3])CC1)N[*:1])[*:2]; DOTA = O=C(O)CN1CCN(CC(=O)O)CCN(CC(=O)*)CCN(CC(=O)O)CC1; Phe(4-CH2NH2) = NCc1ccc(C[C@H](N)C(=O)O)cc1; 1Nal = N[C@@H](Cc1cccc2ccccc12)C(=O)O; 2Nal = N[C@@H](Cc1ccc2ccccc2c1)C(=O)O; Phe(2-Me) = Cc1ccccc1C[C@H](N)C(=O)O; mXylylene = c1cc(C[*:1])cc(C[*:2])c1; Gly(4-THP) = N[C@H](C(=O)O)C1CCOCC1; ξγGlu = O=C(O)C(CCC(=O)[*:2])N[*:1]; tBuAla = CC(C)(C)C[C@H](N)C(=O)O; AllylGly = C=CC[C@H](N)C(=O)O; Chg = N[C@H](C(=O)O)C1CCCCC1; αMeP = C[C@@]1(C(=O)O)CCCN1; NMeS = CN[C@@H](CO)C(=O)O; Ahx = NCCCCCC(=O)O
Target: T1, human DLL3 (Homo sapiens, UniProt Q9NYJ7)
T1 construct: biotin (biotinylated)
T1 sequence (Q9NYJ7 27-618): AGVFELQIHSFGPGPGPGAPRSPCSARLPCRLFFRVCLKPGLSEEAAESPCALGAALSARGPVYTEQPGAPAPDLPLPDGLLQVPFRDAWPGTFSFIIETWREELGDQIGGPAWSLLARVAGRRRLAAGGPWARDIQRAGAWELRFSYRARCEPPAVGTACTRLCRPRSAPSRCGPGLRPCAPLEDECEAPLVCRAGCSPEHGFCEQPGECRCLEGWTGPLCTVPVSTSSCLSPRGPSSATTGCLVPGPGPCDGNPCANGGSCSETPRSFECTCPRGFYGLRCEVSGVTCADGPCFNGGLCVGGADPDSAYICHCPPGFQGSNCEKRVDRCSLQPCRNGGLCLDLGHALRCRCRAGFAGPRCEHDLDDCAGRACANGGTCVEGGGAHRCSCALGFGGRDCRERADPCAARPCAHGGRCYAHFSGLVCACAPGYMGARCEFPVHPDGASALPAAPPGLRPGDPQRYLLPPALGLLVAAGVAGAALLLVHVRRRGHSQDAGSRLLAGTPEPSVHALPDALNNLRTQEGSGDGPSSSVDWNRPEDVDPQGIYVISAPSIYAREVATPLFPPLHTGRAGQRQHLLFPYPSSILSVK
Experiment: Affinity determination by Surface Plasmon Resonance (SPR), Biacore, 1:1 binding model
Conditions: biotinylated human DLL3 on streptavidin chip, 25° C.; NB = nonbinding
In short: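 SPR with biotinylated human DLL3 captured on a streptavidin chip, with a reference surface subtracted. Samples were injected at several concentrations at 100 μL/min in phosphate buffer with 137 mM NaCl, 2.7 mM KCl, 0.05% P20 and 2% DMSO. Kinetic and affinity constants came from a 1:1 binding fit.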

| Kd | SMILES |
| --- | --- |
| 16 nM | CC(=O)N[C@@H](CO)C(=O)N[C@@H](CO)C(=O)N[C@@H](CC(=O)O)C(=O)N[C@H]1CSSC[C@@H](C(=O)N2CCC[C@H]2C(=O)N[C@@H](Cc2ccccc2)C(=O)N[C@@H](CC(=O)O)C(=O)N[C@H](CCCCNC(=O)CN2CCN(CC(=O)O)CCN(CC(=O)O)CCN(CC(=O)O)CC2)C(N)=O)NC(=O)[C@H](CC(N)=O)NC(=O)[C@H](Cc2c[nH]c3ccccc23)NC(=O)[C@H](CCC(N)=O)NC(=O)[C@H](CC(C)C)NC(=O)[C@H](Cc2c[nH]c3ccccc23)NC1=O [compound 78, Ac-Ser-S-D-C(3)-W-L-Q-W-N-C(3)-P-F-D-D-Lys(DOTA)-CONH2] (Ac-SSDCWLQWNCPFD[dK](DOTA)-NH2; disulfide 4-10) |
| > 100 nM | CSCC[C@H](NC(C)=O)C(=O)N[C@@H](CO)C(=O)N[C@@H](CC(=O)O)C(=O)N[C@H]1CSSC[C@@H](C(=O)N2CCC[C@H]2C(=O)N[C@@H](Cc2ccccc2)C(=O)N[C@@H](CC(=O)O)C(N)=O)NC(=O)[C@H](CC(N)=O)NC(=O)[C@H](Cc2c[nH]c3ccccc23)NC(=O)[C@H](CCC(N)=O)NC(=O)[C@H](C)NC(=O)[C@H](Cc2c[nH]c3ccccc23)NC1=O [compound 23, Ac-M-S-D-C(3)-W-(L-Ala)-Q-W-N-C(3)-P-F-D-CONH2] (Ac-MSDCWAQWNCPFD-NH2; disulfide 4-10) |
| 0.51 nM | CC(=O)N[C@H](C)C(=O)N[C@@H](CO)C(=O)N[C@@H](CC(=O)O)C(=O)N[C@H]1CSSC[C@@H](C(=O)N2CCC[C@@]2(C)C(=O)N[C@@H](Cc2ccccc2C)C(=O)N[C@@H](CC(=O)O)C(N)=O)NC(=O)[C@H](CC(N)=O)NC(=O)[C@H](Cc2ccc3ccccc3c2)NC(=O)[C@H](CCCCNC(=O)CCC(NC(=O)CN2CCN(CC(=O)O)CCN(CC(=O)O)CCN(CC(=O)O)CC2)C(=O)O)NC(=O)[C@H](CC(C)(C)C)NC(=O)[C@H](Cc2cccc3ccccc23)NC1=O (stereo partly drawn) [compound 152, Ac-(D-Ala)-S-D-C(3)-(1Nal)-(t-Bu-Ala)-[L-Lys(yE-DOTA)]-(2Nal)-N-C(3)-(aMe-P)-(2Me-F)-D-CONH2] (Ac-[dA]SDC[1Nal][tBuAla]K([ξγGlu-DOTA])[2Nal]NC[αMeP][Phe(2-Me)]D-NH2; disulfide 4-10) |
| > 30 nM | CC(=O)N[C@H](C(=O)N[C@@H](CO)C(=O)N[C@@H](CC(=O)O)C(=O)N[C@H]1CSSC[C@@H](C(=O)N2CCC[C@@]2(C)C(=O)N[C@@H](Cc2ccccc2)C(=O)N[C@@H](CC(=O)O)C(=O)N[C@H](CCCCNC(=O)CN2CCN(CC(=O)O)CCN(CC(=O)O)CCN(CC(=O)O)CC2)C(N)=O)NC(=O)[C@H](C2CCOCC2)NC(=O)[C@H](Cc2c[nH]c3ccccc23)NC(=O)[C@H](CCC(N)=O)NC(=O)[C@H](CC(C)C)NC(=O)[C@H](Cc2cccc3ccccc23)NC1=O)C1CCCCC1 [compound 135, Ac-(Chg)-S-D-C(3)-(1Nal)-L-Q-W-(THPG)-C(3)-(aMe-P)-F-D-[D-Lys(DOTA)]-NH2] (Ac-[Chg]SDC[1Nal]LQW[Gly(4-THP)]C[αMeP]FD[dK](DOTA)-NH2; disulfide 4-10) |
| > 100 nM | CSCC[C@H](NC(C)=O)C(=O)N[C@@H](CO)C(=O)N[C@@H](CC(=O)O)C(=O)N[C@H]1CSSC[C@@H](C(=O)N[C@@H](C)C(=O)N[C@@H](Cc2ccccc2)C(=O)N[C@@H](CC(=O)O)C(N)=O)NC(=O)[C@H](CC(N)=O)NC(=O)[C@H](Cc2c[nH]c3ccccc23)NC(=O)[C@H](CCC(N)=O)NC(=O)[C@H](CC(C)C)NC(=O)[C@H](Cc2c[nH]c3ccccc23)NC1=O [compound 27, Ac-M-S-D-C(3)-W-L-Q-W-N-C(3)-(L-Ala)-F-D-CONH2] (Ac-MSDCWLQWNCAFD-NH2; disulfide 4-10) |
| > 30 nM | CC(=O)N[C@H](C(=O)N[C@@H](CO)C(=O)N[C@@H](CC(=O)O)C(=O)N[C@H]1CSCc2cccc(c2)CSC[C@@H](C(=O)N2CCC[C@@]2(C)C(=O)N[C@@H](Cc2ccccc2)C(=O)N[C@@H](CC(=O)O)C(=O)N[C@H](CCCCNC(=O)CN2CCN(CC(=O)O)CCN(CC(=O)O)CCN(CC(=O)O)CC2)C(N)=O)NC(=O)[C@H](CC(N)=O)NC(=O)[C@H](Cc2c[nH]c3ccccc23)NC(=O)[C@H](CCC(N)=O)NC(=O)[C@H](CC(C)C)NC(=O)[C@H](Cc2cccc3ccccc23)NC1=O)C1CCCCC1 [Cpd #144, Ac-(Chg)-S-D-C(mDBX)-(1Nal)-L-Q-W-N-C(2)-(aMe-P)-F-D-D-Lys(DOTA)-CONH2] (Ac-[Chg]SDC[1Nal]LQWNC[αMeP]FD[dK](DOTA)-NH2; linker 4-10 via mXylylene) |
| > 100 nM | CC(C)C[C@@H]1NC(=O)[C@H](Cc2c[nH]c3ccccc23)NC(=O)[C@@H](NC(=O)[C@H](CC(=O)O)NC(=O)[C@H](CO)NC(=O)CCCCCNC(=O)CN2CCN(CC(=O)O)CCN(CC(=O)O)CCN(CC(=O)O)CC2)CSSC[C@@H](C(=O)N2CCC[C@H]2C(=O)N[C@@H](Cc2ccccc2)C(=O)N[C@@H](CC(=O)O)C(=O)N[C@H](CCCCN)C(N)=O)NC(=O)[C@H](CC(N)=O)NC(=O)[C@H](Cc2c[nH]c3ccccc23)NC(=O)[C@H](CCC(N)=O)NC1=O [compound 73, DOTA-Ahx-S-D-C(3)-W-L-Q-W-N-C(3)-P-F-D-(D-Lys)-NH2] ({DOTA-Ahx}-SDCWLQWNCPFD[dK]-NH2; disulfide 3-9) |
| 0.24 nM | CC(=O)N[C@H](C)C(=O)N[C@@H](CO)C(=O)N[C@@H](CC(=O)O)C(=O)N[C@H]1C/C=C/C[C@@H](C(=O)N2CCC[C@@]2(C)C(=O)N[C@@H](Cc2ccccc2)C(=O)N[C@@H](CC(=O)O)C(=O)N[C@H](CCCCNC(=O)CN2CCN(CC(=O)O)CCN(CC(=O)O)CCN(CC(=O)O)CC2)C(N)=O)NC(=O)[C@H](CC(N)=O)NC(=O)[C@H](Cc2ccc3ccccc3c2)NC(=O)[C@H](CCC(N)=O)NC(=O)[C@H](CC(C)(C)C)NC(=O)[C@H](Cc2cccc3ccccc23)NC1=O [compound 161, Ac-(D-Ala)-S-D-AllyG(4)-(1Nal)-(t-Bu-Ala)-Q-(2Nal)-N-AllyG(4)-(aMe-P)-F -D-D-Lys(DOTA)-CONH2] (Ac-[dA]SD[AllylGly][1Nal][tBuAla]Q[2Nal]N[AllylGly][αMeP]FD[dK](DOTA)-NH2; staple (E) 4-10) |
| 0.21 nM | CC(=O)N[C@@H](CC1CCNCC1)C(=O)N[C@@H](CO)C(=O)N[C@@H](CC(=O)O)C(=O)N[C@H]1C/C=C/C[C@@H](C(=O)N2CCC[C@@]2(C)C(=O)N[C@@H](Cc2ccccc2)C(=O)N[C@@H](CC(=O)O)C(N)=O)NC(=O)[C@H](CC(N)=O)NC(=O)[C@H](Cc2ccc3ccccc3c2)NC(=O)[C@H](Cc2ccc(CNC(=O)CN3CCN(CC(=O)O)CCN(CC(=O)O)CCN(CC(=O)O)CC3)cc2)NC(=O)[C@H](CC(C)(C)C)NC(=O)[C@H](Cc2cccc3ccccc23)NC1=O [compound 199, Ac-(D-Ala)-S-D-AllyG(4)-(1Nal)-(t-Bu-Ala)-[PAF(DOTA)]-(2Nal)-N-AllyG(4)-(aMe-P)-F-D-CONH2] (Ac-[Ala(piperidin-4-yl)]SD[AllylGly][1Nal][tBuAla][Phe(4-CH2NH2)](DOTA)[2Nal]N[AllylGly][αMeP]FD-NH2; staple (E) 4-10) |
| > 100 nM | CSCC[C@H](NC(C)=O)C(=O)N[C@@H](CO)C(=O)N[C@@H](CC(=O)O)C(=O)N[C@H]1CSSC[C@@H](C(=O)N2CCC[C@H]2C(=O)N[C@H](C)C(=O)N[C@@H](CC(=O)O)C(N)=O)NC(=O)[C@H](CC(N)=O)NC(=O)[C@H](Cc2c[nH]c3ccccc23)NC(=O)[C@H](CCC(N)=O)NC(=O)[C@H](CC(C)C)NC(=O)[C@H](Cc2c[nH]c3ccccc23)NC1=O [compound 17, Ac-M-S-D-C(3)-W-L-Q-W-N-C(3)-P-(D-Ala)-D-CONH2] (Ac-MSDCWLQWNCP[dA]D-NH2; disulfide 4-10) |
| > 100 nM | CSCC[C@H](NC(C)=O)C(=O)N[C@@H](CO)C(=O)N[C@@H](CC(=O)O)C(=O)N[C@H]1CSSC[C@@H](C(=O)N2CCC[C@H]2C(=O)N[C@@H](Cc2ccccc2)C(=O)N[C@@H](CC(=O)O)C(N)=O)NC(=O)[C@@H](C)NC(=O)[C@H](Cc2c[nH]c3ccccc23)NC(=O)[C@H](CCC(N)=O)NC(=O)[C@H](CC(C)C)NC(=O)[C@H](Cc2c[nH]c3ccccc23)NC1=O [compound 15, Ac-M-S-D-C(3)-W-L-Q-W-(D-Ala)-C(3)-P-F-D-CONH2] (Ac-MSDCWLQW[dA]CPFD-NH2; disulfide 4-10) |
| 1.51 nM | CC(=O)N[C@@H](CC1CCNCC1)C(=O)N(C)[C@@H](CO)C(=O)N[C@@H](CC(=O)O)C(=O)N[C@H]1C/C=C/C[C@@H](C(=O)N2CCC[C@@]2(C)C(=O)N[C@@H](Cc2ccccc2)C(=O)N[C@@H](CC(=O)O)C(N)=O)NC(=O)[C@H](CC(N)=O)NC(=O)[C@H](Cc2ccc3ccccc3c2)NC(=O)[C@H](Cc2ccc(CNC(=O)CN3CCN(CC(=O)O)CCN(CC(=O)O)CCN(CC(=O)O)CC3)cc2)NC(=O)[C@H](CC(C)(C)C)NC(=O)[C@H](Cc2cccc3ccccc23)NC1=O [compound 190, Ac-[3-(4-piperidinyl)-Ala]-(NMe-Ser)-D-AllyG(4)-(1Nal)-(t-Bu-Ala)-[PAF(DOTA)]-(2Nal)-N-AllyG(4)-(aMe-P)-F-D-CONH2] (Ac-[Ala(piperidin-4-yl)][NMeS]D[AllylGly][1Nal][tBuAla][Phe(4-CH2NH2)](DOTA)[2Nal]N[AllylGly][αMeP]FD-NH2; staple (E) 4-10) |

— patent US20250186541A1, “DLL3 TARGETING PEPTIDES AND CONSTRUCTS THEREOF” (MARIANA ONCOLOGY INC., priority 2023, published 2025)
